Laboratory results taken from patent US12240870B2, “Sequencing method for CAR T cell therapy” (Purdue Research Foundation, priority 2018, dated 2025).

Columns and labels:
unsorted E2-CAR-T cells = assay: 3H-EC17 uptake by E2-CAR-T cells; design: species or system human; settings: unsorted E2-CAR-T cells (~24% EGFRt+, ~95:5 CD8/CD4), 2 hour at room temperature; read-out: Kd of 3H-EC17 binding to E2-CAR-T cells
Experimental: FIG. 10, Panel A: Kd values of ^3H-EC17 uptake by FR+ target cells after a 2 hour incubation at 37° C. (calculated from the numbers of molecules bound per cell). Panel B: Kd value of ^3H^−EC17 uptake by E2-CAR-T cells (˜24% EGFRt+, ˜95:5 CD8/CD4 ratio) after a 2 hour incubation at room temperate (calculated from total cell-associated radioactivity, DPM).
The EC17 has already been tested in the clinic for immunotherapy and optical imaging purposes. To directly quantify its bispecific binding affinities, ^3H-EC17 was synthesized and radioligand binding assays were carried out on KB and CHO-β cell lines representing FRα+ and FRβ+ target cells, respectively, and on unsorted EGFRt CAR-T cells representing the effector cells.

[1] = EC17 dose finding and CRS assessment in tumor-free mice; format: in vivo, NSG mice
Excerpt: Panel A: Schematic diagram to show dose scheduling of CAR-T cells (˜10 million “clinical facsimile”) plus EC17 dosed 3 different ways in NSG mice without or with pre-established MDA-MB-231 xenografts. Tumor-free mice received EC17 SIW 500 nmol/kg (2 doses on days 2 and 10). Tumor-bearing mice received EC17 as follows: EC17 SIW 500 nmol/kg (5 doses on days 2, 10, 17, 24, and 31), EC17 M/Th/M_Escalation-1 (repeats of 5/50/500 nmol/kg on Monday/Thursday/Monday followed by 1-week break, i,e. on days 2, 6, 10, 17, 20, 24, and 31), or EC17 M/Th/M_Escalation-2 (repeats of 5/100/1000 nmol/kg on Monday/Thursday/Monday followed by 1-week break, i.e. days 2, 6, 10, 17, 20, 24, and 31). Panel B: Systemic levels of human IFNγ on a log 2 scale detected in mouse plasma on days 11 and 12 after CAR-T cell injection in tumor-bearing versus tumor-free mice (i.e., ˜20 and 42 hours after the previous EC17 dose in all treated cohorts). Panel C: Circulating CAR-T cells in mouse blood identified as human CD3ε+ EGFRt+ events by flow cytometry and enumerated per 100 μL of whole blood. Panel D: Measurements of change in body weight and tumor volume in tumor-bearing mice that received CAR-T cells only or CAR-T cells plus EC17 dosed 3 different ways (dashed lines indicated each EC17 dose). n=5 mice per group. All data represent mean±s.e.m. * p<0.05 by one-way ANOVA test. […]

For `Nc1nc2ncc(CNc3ccc(C(=O)N[C@@H](CCC(=O)NCCNC(=S)Nc4ccc(-c5c6ccc(=O)cc-6oc6cc(O)ccc56)c(C(=O)O)c4)C(=O)O)cc3)nc2c(=O)[nH]1` [EC17, FA-(γ)-ethylenediamine-FITC], the Kd (unsorted E2-CAR-T cells) was ~0.13 µM, the body weight loss ([1]; tumor-free mice, two weekly doses of EC17 at 500 nmol/kg) was “no CRS symptoms (grade 0 out of a 0-5 scale) or body weight loss was observed” and the “human IFNγ in mouse plasma” value ([1]; tumor-free, CAR-T cells plus EC17, days 11 and 12) was “low levels of IFNγ were detected”.
